Some results are limits rather than exact numbers.

The values that follow come from US20250145633A1, “SUBSTITUTED FURANOPYRIMIDINE COMPOUNDS AS PDE1 INHIBITORS” (Dart NeuroScience, LLC, priority 2017, published 2025).

This assay concerns the target human PDE1B enzyme (Homo sapiens (Human), UniProt Q01064). The assay is described as follows: IMAP TR-FRET PDE1B enzymatic assay. It is filed as biochemical. The conditions noted are these: negative log of half-maximal molar inhibitory concentration, 200 nM FAM-cAMP, values given as bins; for IC50: read-out: PDE1b (pIC50) (converted). The procedure, abridged:
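Full-length GST-tagged human PDE1B (250 pg/well) in IMAP BSA buffer with 10 U/ml calmodulin and 2.5 mM CaCl2; compound pre-incubated 5 min at room temperature, then 200 nM (final) FAM-cAMP for 30 min. IMAP binding reagent/Tb added, 1 h; TR-FRET 520/490 ratio read. IC50 from sigmoidal dose-response fit.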
In general terms: TR-FRET usually uses a lanthanide donor and a delayed reading to cut background.

For the molecule `COc1ccc(CNC(=O)c2c(C)oc3ncnc(NC4(C)CC4)c23)c(Cl)c1` [Example 551, N-[(2-Chloro-4-methoxyphenyl)methyl]-6-methyl-4-[(1-methylcyclopropyl)amino]furo[2,3-d]pyrimidine-5-carboxamide], the IC50 was 0.01 to 0.1 µM.
Still for that read-out and setting: as for `CCOc1cccc(F)c1CNC(=O)c1c(C)oc2ncnc(NC3(C)CC3)c12` [Example 552, N-[(2-Ethoxy-6-fluorophenyl)methyl]-6-methyl-4-[(1-methylcyclopropyl)amino]furo[2,3-d]pyrimidine-5-carboxamide], the figure is 0.01 to 0.1 µM.
As for `COc1ccccc1OCCNC(=O)c1c(C)oc2ncnc(NC3(C)CC3)c12` [Example 557, N-[2-(2-Methoxyphenoxy)ethyl]-6-methyl-4-[(1-methylcyclopropyl)amino]furo[2,3-d]pyrimidine-5-carboxamide], the “PDE1b (pIC50)” value is over 8.
In the case of `COc1ccccc1OCCN(C)C(=O)c1c(C)oc2ncnc(NC3(C)CC3)c12` [Example 558, N-[2-(2-Methoxyphenoxy)ethyl]-N,6-dimethyl-4-[(1-methylcyclopropyl)amino]furo[2,3-d]pyrimidine-5-carboxamide], the IC50 is 0.01 to 0.1 µM.
As for `Cc1oc2ncnc(NC3(C)CC3)c2c1C(=O)NCCOc1ccccc1F` [Example 559, N-[2-(2-Fluorophenoxy)ethyl]-6-methyl-4-[(1-methylcyclopropyl)amino]furo[2,3-d]pyrimidine-5-carboxamide], the “PDE1b (pIC50)” value is reported as over 8.
With `Cc1oc2ncnc(NC3(C)CC3)c2c1C(=O)NCCCc1nc2cc(F)ccc2[nH]1` [Example 568, N-[3-(5-Fluoro-1H-1,3-benzodiazol-2-yl)propyl]-6-methyl-4-[(1-methylcyclopropyl)amino]furo[2,3-d]pyrimidine-5-carboxamide], the IC50 is 0.01 to 0.1 µM.
Same read-out and setting: as for `Cc1oc2ncnc(NC3(C)CC3)c2c1C(=O)N(C)Cc1cc2cc(F)ccc2[nH]1` [Example 569, N-[(5-Fluoro-1H-indol-2-yl)methyl]-N,6-dimethyl-4-[(1-methylcyclopropyl)amino]furo[2,3-d]pyrimidine-5-carboxamide], the figure is 0.01 to 0.1 µM.
Still for that read-out and setting: next, `COc1ccc2[nH]c(CNC(=O)c3c(C)oc4ncnc(NC5(C)CC5)c34)cc2c1` [Example 570, N-[(5-Methoxy-1H-indol-2-yl)methyl]-6-methyl-4-[(1-methylcyclopropyl)amino]furo[2,3-d]pyrimidine-5-carboxamide]: 0.01 to 0.1 µM; `Cc1oc2ncnc(NC3(C)CC3)c2c1C(=O)NCc1cnn(-c2ccc(F)cc2)c1` [Example 571, N-{[1-(4-Fluorophenyl)-1H-pyrazol-4-yl]methyl}-6-methyl-4-[(1-methylcyclopropyl)amino]furo[2,3-d]pyrimidine-5-carboxamide]: 0.01 to 0.1 µM.
For the molecule `Cc1oc2ncnc(NC3(C)CC3)c2c1C(=O)NCc1cnn(-c2cccc(F)c2)c1` [Example 572, N-{[1-(3-Fluorophenyl)-1H-pyrazol-4-yl]methyl}-6-methyl-4-[(1-methylcyclopropyl)amino]furo[2,3-d]pyrimidine-5-carboxamide], the “PDE1b (pIC50)” value was over 8.
`COc1ccc(CN(CCCO)C(=O)c2c(C)oc3ncnc(NC4(C)CC4)c23)cc1` [Example 573, N-(3-Hydroxypropyl)-N-[(4-methoxyphenyl)methyl]-6-methyl-4-[(1-methylcyclopropyl)amino]furo[2,3-d]pyrimidine-5-carboxamide]: the IC50 is 0.01 to 0.1 µM.
As to `Cc1oc2ncnc(NC3(C)CC3)c2c1C(=O)N(CCCO)Cc1ccc(F)cc1` [Example 574, N-[(4-Fluorophenyl)methyl]-N-(3-hydroxypropyl)-6-methyl-4-[(1-methylcyclopropyl)amino]furo[2,3-d]pyrimidine-5-carboxamide], the “PDE1b (pIC50)” value was over 8.
In the case of `Cc1oc2ncnc(NC3(C)CC3)c2c1C(=O)N(C)Cc1nc2ccc(F)cc2[nH]1` [Example 575, N-[(6-Fluoro-1H-1,3-benzodiazol-2-yl)methyl]-N,6-dimethyl-4-[(1-methylcyclopropyl)amino]furo[2,3-d]pyrimidine-5-carboxamide], the IC50 is 0.1 to 1 µM.
On the same count and under the same terms, next, `COCCN(Cc1cccc(OC)c1)C(=O)c1c(C)oc2ncnc(NC3(C)CC3)c12` [Example 580, N-(2-Methoxyethyl)-N-[(3-methoxyphenyl)methyl]-6-methyl-4-[(1-methylcyclopropyl)amino]furo[2,3-d]pyrimidine-5-carboxamide]: 0.01 to 0.1 µM; `Cc1oc2ncnc(NC3(C)CC3)c2c1C(=O)N(C)CCc1nc2cc(F)ccc2[nH]1` [Example 583, N-[2-(5-Fluoro-1H-1,3-benzodiazol-2-yl)ethyl]-N,6-dimethyl-4-[(1-methylcyclopropyl)amino]furo[2,3-d]pyrimidine-5-carboxamide]: 0.1 to 1 µM.
On the same count and under the same terms, as for `Cc1oc2ncnc(NC3(C)CC3)c2c1C(=O)NCc1cc2ccc(F)cc2[nH]c1=O` [Example 584, N-[(7-Fluoro-2-oxo-1,2-dihydroquinolin-3-yl)methyl]-6-methyl-4-[(1-methylcyclopropyl)amino]furo[2,3-d]pyrimidine-5-carboxamide], the figure is 0.01 to 0.1 µM.
With `Cc1oc2ncnc(NC3(C)CC3)c2c1C(=O)NCCOc1ccc(F)cc1` [Example 585, N-[2-(4-Fluorophenoxy)ethyl]-6-methyl-4-[(1-methylcyclopropyl)amino]furo[2,3-d]pyrimidine-5-carboxamide], the “PDE1b (pIC50)” value is over 8.
Consider `COc1ccccc1OC1CN(C(=O)c2c(C)oc3ncnc(NC4(C)CC4)c23)C1` [Example 589, 5-[3-(2-Methoxyphenoxy)azetidine-1-carbonyl]-6-methyl-N-(1-methylcyclopropyl)furo[2,3-d]pyrimidin-4-amine], for which the IC50 was 0.01 to 0.1 µM.
The same measure, in the same setting: as for `COc1cccc(OC2CN(C(=O)c3c(C)oc4ncnc(NC5(C)CC5)c34)C2)c1` [Example 590, 5-[3-(3-Methoxyphenoxy)azetidine-1-carbonyl]-6-methyl-N-(1-methylcyclopropyl)furo[2,3-d]pyrimidin-4-amine], the figure is under 0.01 µM.
Same read-out and setting: as for `CCOc1ccc(C(C)NC(=O)c2c(C)oc3ncnc(NC4(C)CC4)c23)cc1F` (centres unmarked) [Example 595, N-[1-(4-Ethoxy-3-fluorophenyl)ethyl]-6-methyl-4-[(1-methylcyclopropyl)amino]furo[2,3-d]pyrimidine-5-carboxamide], the figure is 0.01 to 0.1 µM.
For the molecule `COc1cccc2c1OCCCN(C(=O)c1c(C)oc3ncnc(NC4(C)CC4)c13)C2` [Example 600], the IC50 is 0.01 to 0.1 µM.
The same measure, in the same setting: next, `COc1ccc(CN(C)C(=O)c2c(C)oc3ncnc(NC4(C)CC4)c23)cc1O` [Example 604, N-[(3-Hydroxy-4-methoxyphenyl)methyl]-N,6-dimethyl-4-[(1-methylcyclopropyl)amino]furo[2,3-d]pyrimidine-5-carboxamide]: 0.01 to 0.1 µM; `C#CCN(Cc1ccc(OC)cc1)C(=O)c1c(C)oc2ncnc(NC3(C)CC3)c12` [Example 606, N-[(4-Methoxyphenyl)methyl]-6-methyl-4-[(1-methylcyclopropyl)amino}-N-(prop-2-yn-1-yl)furo[2,3-d]pyrimidine-5-carboxamide]: 0.01 to 0.1 µM.
The same measure, in the same setting: next, `COc1ccccc1C(C)NC(=O)c1c(C)oc2ncnc(NC3(C)CC3)c12` (centres unmarked) [Example 613, N-[1-(2-Methoxyphenyl)ethyl]-6-methyl-4-[(1-methylcyclopropyl)amino]furo[2,3-d]pyrimidine-5-carboxamide]: 0.01 to 0.1 µM; `Cc1oc2ncnc(NC3(C)CC3)c2c1C(=O)NCc1cc([N+](=O)[O-])ccc1F` [Example 614, N-[(2-Fluoro-5-nitrophenyl)methyl]-6-methyl-4-[(1-methylcyclopropyl)amino]furo[2,3-d]pyrimidine-5-carboxamide]: under 0.01 µM; `COc1ccc(CCNC(=O)c2c(C)oc3ncnc(NC4(C)CC4)c23)cc1` [Example 619, N-[2-(4-Methoxyphenyl)ethyl]-6-methyl-4-[(1-methylcyclopropyl)amino]furo[2,3-d]pyrimidine-5-carboxamide]: 0.01 to 0.1 µM.
In the case of `Cc1oc2ncnc(NC3(C)CC3)c2c1C(=O)Nc1cnn(-c2cccnc2)c1` [Example 620, 6-Methyl-4-[(1-methylcyclopropyl)amino]-N-[1-(pyridin-3-yl)-1H-pyrazol-4-yl]furo[2,3-d]pyrimidine-5-carboxamide], the IC50 is 0.01 to 0.1 µM.
On the same count and under the same terms, next, `Cc1oc2ncnc(NC3(C)CC3)c2c1C(=O)Nc1cnn(-c2ccncc2)c1` [Example 621, 6-Methyl-4-[(1-methylcyclopropyl)amino]-N-[1-(pyridin-4-yl)-1H-pyrazol-4-yl]furo[2,3-d]pyrimidine-5-carboxamide]: 0.01 to 0.1 µM.
`COc1ncnc2c1CN(C(=O)c1c(C)oc3ncnc(NC4(C)CC4)c13)C2` [Example 622, 5-{4-Methoxy-5H,6H,7H-pyrrolo[3,4-d]pyrimidine-6-carbonyl}-6-methyl-N-(1-methylcyclopropyl)furo[2,3-d]pyrimidin-4-amine]: the IC50 was 0.1 to 1 µM.
On the same count and under the same terms, as for `Cc1oc2ncnc(NC3(C)CC3)c2c1C(=O)N1CCn2cc(C(F)(F)F)nc2C1` [Example 623, 6-Methyl-N-(1-methylcyclopropyl)-5-[2-(trifluoromethyl)-5H,6H,7H,8H-imidazo[1,2-a]pyrazine-7-carbonyl]furo[2,3-d]pyrimidin-4-amine], the figure is 0.01 to 0.1 µM; as for `Cc1oc2ncnc(NC3(C)CC3)c2c1C(=O)N1CCn2c(Br)cnc2C1` [Example 624, 5-{3-Bromo-5H,6H,7H,8H-imidazo[1,2-a]pyrazine-7-carbonyl}-6-methyl-N-(1-methylcyclopropyl)furo[2,3-d]pyrimidin-4-amine], 0.01 to 0.1 µM.
Still for that read-out and setting: as for `Cc1nccc(CNC(=O)c2c(C)oc3ncnc(NC4(C)CC4)c23)n1` [Example 625, 6-Methyl-4-[(1-methylcyclopropyl)amino]-N-[(2-methylpyrimidin-4-yl)methyl]furo[2,3-d]pyrimidine-5-carboxamide], the figure is 0.01 to 0.1 µM.
